Data taken from US20160250128A1, “TARGETED CAPSULES FOR THE DELIVERY OF SKIN WHITENING AGENTS IN THE SKIN” (INFINITEC ACTIVOS, S.L., priority 2013, published 2016).

How the values were obtained:
cultured melanocytes = conditions: cited from earlier work
Human melanocytes [1] = assay: Melanin determination in treated melanocytes; format: cell-based; conditions: for % MELANINE CONTENT: determined as in examples 4 and 5, concentration not given
Procedure: (§1) Day 1—Human melanocytes are rise by trypsinization and centrifuge at 1500 rpm (433×g) in an Allegra X-22R (Beckman Coulter) centrifuge during 5 minutes, and then are resuspended in 1 ml of a complete culture medium to count the number of cells. A volume of 10 μl of the cells solution was dyed with Trypan Blue colorant and the cells are counted with a hemocytometer. Then a cell solution is prepared at a concentration of 2.5×10^5 cells/ml in a complete medium and 100 μl of the cell suspension is seed in wells of 96 well plates. The plates are incubated at 37° C. in a 5% CO2 atmosphere.
Day 2—The seed cells are washed and treated with the different products in basal conditions and promelanogenic conditions. For that, the medium is removed of wells and 100 μl of the products in basal medium with 0.5% of FBS is added. Previously, the test products are solubilised in the same medium. Arbutin is solubilised in ethanol.
The products are tested at 3 different concentrations in the presence and absence of the melanogenic inductor (100 μM), i.e. isobutyl methyl-xantine (IBMX). The plates are incubated 37° C. and 5% CO2 during 5 days. The experiments are carried out using 4 wells per condition. The melanin accumulation inside the cells is monitored daily by optical microscopy.
Days 3 and 4—All treatments are renewed every 24 hours.
In order to determine the melanin content in cells treated as described in example 4, the medium is removed from each well and cells are washed with PBS 1N and incubated during 3 days at 37° C. facilitating the solubilisation of the melanin in NaOH.
Day 7—Once the solubilisation of melanin is complete, 50 μl de H2O2 MilliQ is added per well and the content is determined by absorbance using a Synergy II (Biotek Instruments Inc., Winooski, USA) at 390 nm. The mode and SD is calculated for each
The activity of several peptides of formula (II) (listed in table 3 below) to reduce melanine was determined as explained in example 5 after treating the cells as explained in example 4.

Human melanocytes [2] = assay: Cell viability of treated melanocytes (CCK-8); format: cell-based; conditions: IBMX 100 μM alone, control = 100
Procedure: as §1
Day 2—The seed cells are washed and treated with the different products in basal conditions and promelanogenic conditions. […]
The products are tested at 3 different concentrations in the presence and absence of the melanogenic inductor (100 μM), i.e. isobutyl methyl-xantine (IBMX). […] The melanin accumulation inside the cells is monitored daily by optical microscopy. […]
Day 5—Determination of cell viability: In order to determine de number of viable cells, 10 μl of CCK-8 (WST-8) is added in each well. The plates are incubated at 37° C. during 1 hour and the absorbance is measured at 450 nm using Synergy II multimode (Biotek Instruments Inc., Winooski, Estados Unidos). The mode and SD is calculated for each concentration using Microsoft Excel application (see FIG. 2 and table 2)

Human dermal fibroblasts = assay: Cytotoxicity assay (MTT); format: cell-based; conditions: positive control 0.1% SDS, 48 h
Procedure: (§2) Human dermal fibroblasts and human keratinocytes were used. The isolated cells were cultured in DMEM culture medium supplemented with 10% FCS and were incubated at 37° C. for maintenance treatment. Untreated cells were used as negative control. The positive control was 0.1% SDS. The microcapsules as obtained in Example 1 were tested in the DMEM culture medium at two concentrations: 0.03% and 0.3%. These weight percentages refer to the weight of the microcapsule in relation to the total weight.
(§3) Cells were seeded at 20000 cells per well in a 96-well plate. 24 hours after seeding, cells were incubated under the conditions described above. After 48 h of incubation at 37° C., the culture medium was removed and the MTT reagent was added. Cells were incubated 2 hours at 37° C. DMSO was then added and the absorbance of the formed formazan salt was measured at A 570 nm. Lower absorbance values correspond to cells with lower metabolic activity, which correlates with an increased damage and, therefore, with an increased cytotoxic effect. Thus, the amount of living cells is proportional to the amount of formazan produced.

human keratinocytes = assay: Cytotoxicity assay (MTT); format: cell-based; conditions: positive control 0.1% SDS, 48 h
Procedure: as §2, §3

facial hyperpigmentation = conditions: clinical studies; cited from earlier work
cultured cells = conditions: cited from earlier work

C=CCCCCCCCCC(=O)N[C@@H](Cc1ccccc1)C(=O)O [Sepiwhite, N-undecyl-10-enoyl-L-phenylalanine]
melanin production (cultured melanocytes): reduces melanin production in cultured melanocytes

Palm-Ile-Ser-Leu-Leu-Asp-(d)Ala-Gln-Ser-NH2 (ISLLDAQS; HELM PEPTIDE1{[CCCCCCCCCCCCCCCC(=O)[*:2]].I.S.L.L.D.[dA].Q.S.[am]}$$$$V2.0; SMILES CCCCCCCCCCCCCCCC(=O)N[C@H](C(=O)N[C@@H](CO)C(=O)N[C@@H](CC(C)C)C(=O)N[C@@H](CC(C)C)C(=O)N[C@@H](CC(=O)O)C(=O)N[C@H](C)C(=O)N[C@@H](CCC(N)=O)C(=O)N[C@@H](CO)C(N)=O)[C@@H](C)CC) [peptide of formula (II)]
% MELANINE CONTENT (Human melanocytes [1]): 78%

Palm-Ile-Ser-Leu-Leu-Asp-Ala-Gln-Ser-NH2 (ISLLDAQS; HELM PEPTIDE1{[CCCCCCCCCCCCCCCC(=O)[*:2]].I.S.L.L.D.A.Q.S.[am]}$$$$V2.0; SMILES CCCCCCCCCCCCCCCC(=O)N[C@H](C(=O)N[C@@H](CO)C(=O)N[C@@H](CC(C)C)C(=O)N[C@@H](CC(C)C)C(=O)N[C@@H](CC(=O)O)C(=O)N[C@@H](C)C(=O)N[C@@H](CCC(N)=O)C(=O)N[C@@H](CO)C(N)=O)[C@@H](C)CC) [peptide of formula (II)]
% MELANINE CONTENT (Human melanocytes [1]): 85%

CC(C)Cn1c(=O)n(C)c(=O)c2[nH]cnc21 [Isobutyl methyl-xantine (IBMX), Isobutyl methyl-xantine, reference compound]
Cell viability (Human melanocytes [2]): 90% | Melanin content (%) (Human melanocytes [1]; IBMX 100 μM alone, control = 100): 174 ± 12%

Ac-Ile-Ser-Leu-Leu-Asp-Ala-Gln-Ser-NH2 (Ac-ISLLDAQS-NH2) [peptide of formula (II)]
% MELANINE CONTENT (Human melanocytes [1]): 87%

CCCCCCCCCCCCOS(=O)(=O)[O-].[Na+] [SDS]
% cell viability (Human dermal fibroblasts): 30.0% | % cell viability (human keratinocytes): 13.0%

Palm-Ile-Ser-(d)Leu-Leu-Asp-(d)Ala-Gln-Ser-NH2 (ISLLDAQS; HELM PEPTIDE1{[CCCCCCCCCCCCCCCC(=O)[*:2]].I.S.[dL].L.D.[dA].Q.S.[am]}$$$$V2.0; SMILES CCCCCCCCCCCCCCCC(=O)N[C@H](C(=O)N[C@@H](CO)C(=O)N[C@H](CC(C)C)C(=O)N[C@@H](CC(C)C)C(=O)N[C@@H](CC(=O)O)C(=O)N[C@H](C)C(=O)N[C@@H](CCC(N)=O)C(=O)N[C@@H](CO)C(N)=O)[C@@H](C)CC) [peptide of formula (II)]
% MELANINE CONTENT (Human melanocytes [1]): 65%

NC(=O)c1cccnc1 [Niacinamide]
appearance of hyperpigmented spots (facial hyperpigmentation): reduce the appearance of hyperpigmented spots | melanosome transfer (cultured cells): inhibit melanosome transfer in cultured cells

Ac-Ile-Ser-(d)Leu-Leu-Asp-(d)Ala-Gln-Ser-NH2 (ISLLDAQS; HELM PEPTIDE1{[ac].I.S.[dL].L.D.[dA].Q.S.[am]}$$$$V2.0; SMILES CC[C@H](C)[C@H](NC(C)=O)C(=O)N[C@@H](CO)C(=O)N[C@H](CC(C)C)C(=O)N[C@@H](CC(C)C)C(=O)N[C@@H](CC(=O)O)C(=O)N[C@H](C)C(=O)N[C@@H](CCC(N)=O)C(=O)N[C@@H](CO)C(N)=O) [peptide of formula (II)]
% MELANINE CONTENT (Human melanocytes [1]): 68%

Ac-Ile-Ser-Leu-Leu-Asp-(d)Ala-Gln-Ser-NH2 (ISLLDAQS; HELM PEPTIDE1{[ac].I.S.L.L.D.[dA].Q.S.[am]}$$$$V2.0; SMILES CC[C@H](C)[C@H](NC(C)=O)C(=O)N[C@@H](CO)C(=O)N[C@@H](CC(C)C)C(=O)N[C@@H](CC(C)C)C(=O)N[C@@H](CC(=O)O)C(=O)N[C@H](C)C(=O)N[C@@H](CCC(N)=O)C(=O)N[C@@H](CO)C(N)=O) [peptide of formula (II)]
% MELANINE CONTENT (Human melanocytes [1]): 80%
